The results in this text go back to patent US20230114241A1, “METHODS OF TREATING EPILEPSY USING THE SAME” (Trevena, Inc., priority 2019, published 2023).

Structures are written as SMILES. Some results are limits rather than exact numbers.

Chain of human sphingosine-1-phosphate receptor 1 (S1P1) (P21453 whole entry): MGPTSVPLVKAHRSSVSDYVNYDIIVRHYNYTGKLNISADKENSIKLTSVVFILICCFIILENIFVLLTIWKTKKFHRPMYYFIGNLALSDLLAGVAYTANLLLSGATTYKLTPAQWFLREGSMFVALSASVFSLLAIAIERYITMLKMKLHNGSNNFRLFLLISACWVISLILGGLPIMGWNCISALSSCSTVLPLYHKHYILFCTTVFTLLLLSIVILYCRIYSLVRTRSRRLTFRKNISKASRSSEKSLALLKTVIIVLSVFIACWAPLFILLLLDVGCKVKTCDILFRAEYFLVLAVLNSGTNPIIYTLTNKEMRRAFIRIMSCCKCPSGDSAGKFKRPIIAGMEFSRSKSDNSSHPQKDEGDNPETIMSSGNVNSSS

The first experiment has as its target human sphingosine-1-phosphate receptor 1 (S1P1) (Homo sapiens, UniProt P21453). The experiment is described as follows: Inhibition of cAMP production (HTRF cAMP HiRange), S1P1 CHO-K1 cells. As to conditions: inhibition of cAMP production, S1P1; read-out: hS1P1 CAMP pEC50 (converted). Format: cell-based. The protocol:
Stable clonal Chinese hamster ovary K1 (CHO-K1) cells co-expressing EA-β-arrestin2 and the human sphingosine-1-phosphate receptor 1 (NM_001400, S1P1) with a C-terminal Prolink™ tag were purchased from DiscoverX corporation (Cat #: 93-0207C2).
Cell lines were cultured in AssayComplete™ Media 6 (DiscoverX Corporation, Cat #: 920018GF2) at 37° C. and 5% CO2 in a humidified CO2 and temperature-controlled incubator. To begin assay plating, cells were washed with Dulbecco's phosphate buffered saline (CellGro, Cat #: 21-031-CV) and lifted from the culturing flask by incubation (37° C., 5 min) with CellStripper (Cellgro, Cat #: 25-056-CI). […] Plated cells were incubated overnight at 37° C. and 5% CO2 in a humidified CO2 and temperature-controlled incubator.
Agonist-promoted G-protein responses were determined by measuring changes in intracellular cAMP using the HTRF® cAMP HiRange kit (CisBio, Cat #: 62AM6PEJ) based on time-resolved fluorescence resonance energy transfer (TR-FRET) technology. […] Following a 30-minute incubation at 37° C. and 5% CO2 in a humidified CO2 and temperature-controlled incubator, the components of the cAMP HiRange kit were added as per the manufacturer's instructions. After an hour incubation at room temperature, plates were analyzed by a BMG PheraStar microplate reader.
These values are normalized to fingolimod, a known agonist of the sphingosine-1-phosphate 1 receptor.
(cAMP levels reflect the balance of adenylyl cyclase and phosphodiesterase activity.)
Consider `Cc1ccc2oc(-c3ccc4c(c3)nnn4C(C)C)nc2c1` [Compound 419, 2-(1-isopropyl-1H-benzo[d][1,2,3]triazol-5-yl)-5-methyl-benzo[d]oxazole], for which the EC50 is < 316 nM.
As to `COc1cc(NC(C)=O)ccc1-c1noc(-c2ccc3c(c2)nnn3C(C)C)n1` [Compound 532, N-(3-methoxy-4-{5-[1-(propan-2-yl)-1H-1,2,3-benzotriazol-5-yl]-1,2,4-oxadiazol-3-yl}phenyl)acetamide], the EC50 is < 316 nM.
Turning to `CC(C)n1nnc2cc(-c3nc4c(o3)COc3ccccc3-4)ccc21` [Compound 462, 5-{4H-chromeno[4,3-d][1,3]oxazol-2-yl}-1-(propan-2-yl)-1H-1,2,3-benzotriazole], the EC50 is < 316 nM.
On to `CC(C)Nc1ccc(-c2ccc(-c3ccc4c(c3)nnn4C(C)C)cc2)cc1C#N` [Compound 507, 4′-(1-isopropyl-1H-benzo[d][1,2,3]triazol-5-yl)-4-(isopropylamino)-[1,1′-biphenyl]-3-carbonitrile], for which the EC50 was < 316 nM.
Consider `CC(C)Cn1nnc2cc(-c3nc4ccncc4o3)ccc21` [Compound 504, 2-(1-isobutyl-1H-benzo[d][1,2,3]triazol-5-yl)oxazolo[5,4-c]pyridine], for which the EC50 was > 316 nM.
Still for that read-out and setting: then `CNc1ccccc1-c1coc(-c2ccc3c(c2)nnn3C(C)C)n1` [Compound 587, N-methyl-2-{2-[1-(propan-2-yl)-1H-1,2,3-benzotriazol-5-yl]-1,3-oxazol-4-yl}aniline], with > 316 nM.

The same experiment, now with this note: inhibition of cAMP production; potency; read-out: hS1P1 CAMP pEC50 (converted).
For `CC(C)n1ccc2cc(-c3nc(-c4ccccc4O)no3)ccc21` [Compound 323, 2-(5-(1-isopropyl-1H-indol-5-yl)-1,2,4-oxadiazol-3-yl)phenol], the EC50 is > 316 nM.
Same read-out and setting: the same measure for `CCC1(CC)CC(=O)c2cc(-c3nnc(-c4ccc5c(c4)nnn5C(C)C)s3)ccc2O1` [Compound 67, 2,2-diethyl-6-(5-(1-isopropyl-1H-benzo[d][1,2,3]triazol-5-yl)-1,3,4-thiadiazol-2-yl)chroman-4-one]: > 316 nM; for `OCCn1nnc2cc(-c3noc(-c4ccccc4Br)n3)ccc21` [Compound 238, 2-(5-(5-(2-bromo-phenyl)-1,2,4-oxadiazol-3-yl)-1H-benzo[d][1,2,3]triazol-1-yl)ethanol]: > 316 nM.
Regarding `CCC1(CC)CC(=O)c2cc(-c3nc(-c4cncc(O)c4)no3)ccc2O1` [Compound 310, 2,2-diethyl-6-[3-(5-hydroxy-3-pyridyl)-1,2,4-oxadiazol-5-yl]chroman-4-one], the EC50 is < 316 nM.
On to `COc1cccc(OC)c1-c1noc(-c2ccc3c(c2)nnn3C(C)C)n1` [Compound 251, 3-(2,6-dimethoxy-phenyl)-5-(1-isopropyl-benzotriazol-5-yl)-1,2,4-oxadiazole], for which the EC50 was > 316 nM.
With `C=C(F)CNc1ccc(-c2nc(-c3ccc4c(c3)CCC(=O)N4)no2)cc1C#N` [Compound 346, 2-[(2-fluoroprop-2-en-1-yl)amino]-5-[3-(2-oxo-1,2,3,4-tetrahydro-quinolin-6-yl)-1,2,4-oxadiazol-5-yl]benzonilrile], the EC50 was < 316 nM.
As for `CCC1(CC)CC(=O)c2cc(-c3nc(-c4ccccc4C)no3)ccc2O1` [Compound 66, 2,2-diethyl-6-(3-(o-tolyl)-1,2,4-oxadiazol-5-yl)chroman-4-one], the EC50 is < 316 nM.
On the same count and under the same terms, then `CC(C)n1nnc2cc(-c3noc(-c4ccc(COc5ccccc5)cc4)n3)ccc21` [Compound 131, 3-(1-isopropyl-1H-benzo[d][1,2,3]triazol-5-yl)-5-(4-(phenoxy-methyl)phenyl)-1,2,4-oxadiazole], with > 316 nM.
Regarding `Fc1ccc(-c2noc(-c3ccc4c(c3)nnn4C3CCCC3)n2)cc1` [Compound 232, 1-cyclopentyl-5-[3-(4-fluorophenyl)-1,2,4-oxadiazol-5 yl]-1H-1,2,3-benzotriazole], the EC50 was > 316 nM.
For the molecule `c1ccc(Oc2ccc(-c3noc(-c4ccc5c(c4)nnn5C4CC4)n3)cc2)cc1` [Compound 285, 1-cyclopropyl-5-[3-(4-phenoxyphenyl)-1,2,4-oxadiazol-5-yl]-1H-1,2,3-benzotriazole], the EC50 is > 316 nM.
As for `CC1(C)CCC2(CC1)CC(=O)c1cc(-c3nc(-c4cccnc4)no3)ccc1O2` [Compound 58, 4′,4′-dimethyl-6-[3-(pyridin-3-yl)-1,2,4-oxadiazol-5-yl]-3,4-dihydrospiro[1-benzopyran-2,1′-cyclohexane]-4-one], the EC50 was > 316 nM.
For `O=C1CC2(CCCC2)Oc2ccc(-c3nc(-c4ccncc4)no3)cc21` [Compound 176, 6-[3-(pyridin-4-yl)-1,2,4-oxadiazol-5-yl]-3,4-dihydrospiro[1-benzopyran-2,1′-cyclopentane]-4-one], the EC50 is > 316 nM.
On the same count and under the same terms, the same measure for `Cc1cc(-c2nc(-c3ccc4c(c3)nnn4C(C)C)no2)ccn1` [Compound 86, 3-(1-isopropyl-1H-benzo[d][1,2,3]triazol-5-yl)-5-(2-methyl-pyridin-4-yl)-1,2,4-oxadiazole]: > 316 nM; for `CCC1(CC)CC(=O)c2cc(-c3nc(-c4sccc4C)no3)ccc2O1` [Compound 265, 2,2-diethyl-6-(3-(3-methylthiophen-2-yl)-1,2,4-oxadiazol-5-yl)chroman-4-one]: < 316 nM; for `CCC1(CC)CC(=O)c2cc(-c3nc(-c4ccncc4O)no3)ccc2O1` [Compound 312, 2,2-diethyl-6-(3-(3-hydroxypyridin-4-yl)-1,2,4-oxadiazol-5-yl)chroman-4-one]: > 316 nM.
For `Cc1ccc(-c2noc(-c3ccc4c(c3)nnn4C(C)C)n2)cn1` [Compound 236, 5-[3-(6-methylpyridin-3-yl)-1,2,4-oxadiazol-5-yl]-1-(propan-2-yl)-1H-1,2,3-benzotriazole], the EC50 is > 316 nM.
For the molecule `C=CCNc1ccc(-c2nc(-c3ccc4c(c3)CCC(=O)N4)no2)cc1C#N` [Compound 61, 2-(allylamino)-5-(3-(2-oxo-1,2,3,4-tetrahydroquinolin-6-yl)-1,2,4-oxadiazol-5-yl)benzonitrile], the EC50 is < 316 nM.
On to `Clc1ncccc1-c1noc(-c2ccc3c(c2)nnn3CC2CC2)n1` [Compound 199, 5-[3-(2-chloropyridin-3-yl)-1,2,4-oxadiazol-5-yl]-1-(cyclopropyl-methyl)-1H-1,2,3-benzotriazole], for which the EC50 is > 316 nM.
Regarding `Clc1ncccc1-c1noc(-c2ccc3c(c2)nnn3C2CCCC2)n1` [Compound 198, 5-[3-(2-chloro-pyridin-3-yl)-1,2,4-oxadiazol-5-yl]-1-cyclopenty1-1H-1,2,3-benzotriazole], the EC50 is < 316 nM.
For the molecule `CCC1(CC)CC(=O)c2cc(-c3nc(-c4ccncc4)no3)ccc2O1` [Compound 27, 2,2-diethyl-6-[3-(pyridin-4-yl)-1,2,4-oxadiazol-5-yl]-3,4-dihydro-2H-1-benzopyran-4-one], the EC50 was > 316 nM.
In the case of `COc1ccc(-c2nc(-c3ccc4c(c3)nnn4C(C)C)no2)cc1` [Compound 69, 3-(1-isopropyl-benzotriazol-5-yl)-5-(4-methoxyphenyl)-1,2,4-oxadiazole], the EC50 is > 316 nM.
For the molecule `CCC1(CC)CC(=O)c2cc(-c3nc(-c4cccc(OC)c4)no3)ccc2O1` [Compound 71, 2,2-diethyl-6-(3-(3-methoxyphenyl)-1,2,4-oxadiazol-5-yl)chroman-4-one], the EC50 was > 316 nM.
